Experiments:
Format in all cases: cell-based
[1] = system: Bacillus stearothermophilus var. calidolactis; assay: Delvotest microbiological test, 0.15 ml test medium with nutrients present in the test medium, different volumes of milk, visual colour score; conditions: 3 hours at 64° C., FIG. 3
Experimental: In this test, the nutrients were present in the test medium. The explanation of the symbols used in the Figure is as follows.
A commercially available microbiolgical test system (Delvotest®) having 0.15 ml of test medium containing agar, CFU's of Bacillus stearothermophilus var. calidolactis, an antifolate, nutrients, and the indicator Bromocresol Purple was investigated using milk with added penicillin G in concentrations of 0, 0.5, 1, 2, 3 and 4 ppb. These six different milk samples were applied to the test systems in a series of five different volumes, i.e. 0.05 ml, 0.10 ml (the Delvotest® recommended volume), 0.15 ml, 0.20 ml and 0.30 ml. After the milk was added, the tests were incubated for 3 hours at a temperature of 64° C. If there are no antibiotics (or only little) that inhibit the growth of the test organism, after a certain amount of time, an acid environment is formed by the growing microorganisms. Then, the color of the indicator changes from blue/purple to yellow.
Intermediate color changes were assigned values of −2, −1, 0, +1 or +2, depending on the degree of coloration. […] If, for example, a visual color of 2 is chosen as the required threshold value, it can be seen from FIG. 3 that, whereas the standard recommended amount of 0.10 ml milk gives a color of 2 at a concentration of 2 ppb penicillin G, whereas for 0.15, 0.20 and 0.30 ml milk this threshold already is reached at 1.7 ppb penicillin G.

[2] = system: Bacillus stearothermophilus var. calidolactis; assay: Delvotest microbiological test, 0.27 ml test medium, nutrients added as tablet, different volumes of milk; conditions: for concentration giving a Z-value of 0 (threshold): 2.6 hours at 64° C., Z=0.35.a+0.65.b, FIG. 1
Source text: (§1) The arrangement can be used for detecting residues of antibiotics in milk. The commercially available Delvotest® and BR®-test are commonly used. Delvotest® comprises an agar matrix, CFU's of an acid forming microorganism, as well as a color indicator. With the arrangement mentioned above it is possible to automatically scan the bottom side of each of the samples in a test plate. The color and the brightness of the reflected light are registered in three variables, each describing one color component, for instance the so-called L*a*b* model. In the L*a*b* model, the color spectrum is divided in a two-dimensional matrix. The position of a color in this matrix is registered by means of the two variables “a” and “b”. The variable L indicates the intensity (for instance, from light blue to dark-blue). It is possible to make a criterion comprising the a-value, b-value and L-value to make a composite function as follows: Z=wL.L+wa.a+wb.b
(§2) where wL, wa and wb are weighting factors for the L-value, a-value and b-value, respectively. […] By combining two or more of the color components in the L*a*b* model in a predetermined manner that depends on the type of residue and the sample, an accurate detection is possible. In practice, a certain value of Z at which a test should switch between positive and negative result (the threshold value) can be experimentally predetermined.
(§3) As outlined in the detailed description, the following equation was used: Z=0.35.a+0.65.b. The explanation of the symbols used in the Figure is as follows.
(§4) A commercially available microbiological test system (Delvotest®) having 0.27 ml of test medium containing agar, CFU's of Bacillus stearothermophilus var. calidolactis, an antifolate, and the indicator Bromocresol Purple was investigated using milk with added penicillin G in concentrations of 0, 2, 3, 4 and 6 ppb. These five milk samples were applied to the test systems in a series of four different volumes, ie. 0.05 ml, 0.10 ml (the Delvotest® recommended volume), 0.20 ml and 0.30 ml. Before addition of the milk, a tablet with nutrients was applied on the test medium. After the milk was added, the tests were incubated for 2.6 hours at 64° C. If there are no or little antibiotics that inhibit the growth of the test organism, after some time, an acid environment is formed by the growing microorganisms and the indicator changes color from blue/purple to yellow. However, if there are sufficient antibiotics to inhibit growth, the color of the indicator remains purple.
Firstly, the colors were measured using the scanning apparatus described in the detailed description using the following formula for the Z-value: Z=0.35.a+0.65.b. […]

[3] = system: Bacillus stearothermophilus var. calidolactis; assay: Delvotest microbiological test, 0.27 ml test medium, nutrients as tablet, different milk volumes at different incubation times; conditions: 4 ppb penicillin G
Source text: as §1, §2, §3, §4
A similar experimental setup as in Example 1 was used. […] (for 2.4 h, normally referred to as the point of indicator change, and 3.0 h, normally referred to as the point of reading). […]

Structure (SMILES): CC1(C)S[C@@H]2[C@H](NC(=O)Cc3ccccc3)C(=O)N2[C@H]1C(=O)O [penicillin G]
- concentration giving a visual color of 2 (threshold) ([1]; 0.10 ml milk on 0.15 ml test medium): 2 ppb
- concentration giving a visual color of 2 (threshold) ([1]; 0.15 ml milk on 0.15 ml test medium): 1.7 ppb
- concentration giving a visual color of 2 (threshold) ([1]; 0.20 ml milk on 0.15 ml test medium): 1.7 ppb
- concentration giving a visual color of 2 (threshold) ([1]; 0.30 ml milk on 0.15 ml test medium): 1.7 ppb
- concentration giving a Z-value of 0 (threshold) ([2]; 0.10 ml milk on 0.27 ml test medium): 3 ppb
- concentration giving a Z-value of 0 (threshold) ([2]; 0.20 ml milk on 0.27 ml test medium): 2.3 ppb
- concentration giving a Z-value of 0 (threshold) ([2]; 0.30 ml milk on 0.27 ml test medium): 2.0 ppb
- change of sensitivity of the test towards the antibiotic ([2]; milk, doubling the amount of fluid sample advocated by the producer of the test): increases by a third
- Z-value ([3]; 0.10 ml milk, 2.4 h at 64° C., line ◯ of FIG. 2): 11
- Z-value ([3]; 0.10 ml milk, 3.0 h at 64° C., line ⋄ of FIG. 2): 4
- Z-value ([3]; 0.30 ml milk, 2.4 h at 64° C., line Δ of FIG. 2): 14
- Z-value ([3]; 0.30 ml milk, 3.0 h at 64° C., line □ of FIG. 2): 13

Source: patent US20060134725A1, “Method for the determination of the presence of an antibiotic in a fluid” (priority 2003, published 2006)
